Numbering of substitutions follows the chain as printed.
Tests used:
P2X2 A304W = molecular target: T1, P2X2 A304W (Homo sapiens, UniProt Q9UBL9, A304W); assay: 15-min kinetic GCaMP-mScarletI assay in yeast, P2X2 A304W; assay type: cell-based; details: 1 mM ATP or 5 mM AMP-PNP, 15-min bath incubation, n = 3
T1 construct: expressed in transfected cells; host or cells: S. cerevisiae BY4741 background
T1 sequence (Q9UBL9 1-471 A304W): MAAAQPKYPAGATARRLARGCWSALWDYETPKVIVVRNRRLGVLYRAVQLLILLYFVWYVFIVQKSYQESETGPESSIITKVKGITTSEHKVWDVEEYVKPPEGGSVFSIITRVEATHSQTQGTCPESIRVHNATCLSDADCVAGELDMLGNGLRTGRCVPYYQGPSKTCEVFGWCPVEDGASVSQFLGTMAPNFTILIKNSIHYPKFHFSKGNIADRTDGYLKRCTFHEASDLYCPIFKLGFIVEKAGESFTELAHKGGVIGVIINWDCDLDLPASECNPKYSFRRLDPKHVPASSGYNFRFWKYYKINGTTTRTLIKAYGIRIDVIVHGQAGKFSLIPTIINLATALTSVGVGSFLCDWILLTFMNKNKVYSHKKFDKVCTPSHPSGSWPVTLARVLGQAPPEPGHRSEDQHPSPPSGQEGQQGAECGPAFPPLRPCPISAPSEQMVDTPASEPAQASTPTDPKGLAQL
Protocol: To more fully characterize the selected and engineered P2X2 variants, kinetic assays were performed over a longer period (15 min) that provided a more complete view of receptor gating (Fig. 5, A–H).
Figure 5 Kinetic analysis of P2X variants.A–H, P2X2 variants in GCaMP-mScarletI yeast were injected with 1 mM ATP (black) or 5 mM AMP-PNP (pink) and fluorescence was monitored over a 15-min time course of bath incubation. Error bars represent standard deviation of the mean (n = 3).
The A304W mutation therefore appears to either favor the open conformation of the receptor and/or to have slow rates of pore closure.

P2X2 F301W+F303Y = molecular target: T2, P2X2 F301W+F303Y (Homo sapiens, UniProt Q9UBL9, F301W/F303Y); assay: Fast GCaMP-mScarletI assay in yeast, P2X2 F301W+F303Y; assay type: cell-based; details: n = 3; for Bottom, best fit value / Hillslope, best fit value / Top, best fit value: four-parameter logistic fit of ΔF/ΔT; for EC50: four-parameter logistic fit, unit inferred, unit M, read-out: EC50, best fit value
T2 construct: expressed in transfected cells; host or cells: S. cerevisiae BY4741 background
T2 sequence (Q9UBL9 1-471 F301W/F303Y): T1 sequence (Q9UBL9 1-471 A304W) with F301W, F303Y, W304A
Protocol: Figure 4 Unnatural-ligand gating in LBD libraries.A, WT P2X2 was tested with 1 mM ATP, 500 μM AMP-PNP, and compared to ATP with the broken receptor (K81C K83C) control with 1 mM ATP in the fast GCaMP-mScarletI assay (n = 3). […] B, heat map summarizing AMP-PNP signaling (ΔF/ΔT, fast GCaMP-mScarletI assay) in the site-saturation libraries (n = 2–3). All values are normalized to WT P2X2 with saturating amounts of AMP-PNP (500 μM) and therefore represent low signal (ΔF/ΔT) compared to the ATP ligand. C, F301W, F303Y, and A304W were combinatorially combined and tested against the WT, K81C K83C broken P2X2, and the single mutant clones with both ATP (1 mM, black) and AMP-PNP (500 μM, pink). […] Values here represent signal onset and are not normalized to a positive control (n = 2–5). D–K, dose response of each P2X variant with both ATP (black) and AMP-PNP (pink) in the fast GCaMP-mScarletI assay (n = 3). Statistics were performed via one-way ANOVA with Dunnett’s multiple comparisons with to the “broken” K81C K83C negative control. ∗ represents a p value ≤0.05, ∗∗ is p ≤ 0.01, and ∗∗∗ is p ≤ 0.001.
The combined mutations were synergistic, with F303Y + A304W having a predicted additive effect of ca. Ten-fold, relative to the 73-fold seen.
GCaMP assays were performed as follows. P2X2 GCaMP strains were designed with a bi-cistronic reporter, in which the GCaMP protein was followed by a 2A peptide and a mScarletI reporter ([53]). The co-translated mScarletI was designed to act as a control for plasmid loss, GCaMP breakage via nonsense mutation, and contamination. […] P2X2-GCaMP strains were cultured and induced as previously described. Samples were induced for 24 h to allow for the accumulation of the mature GCaMP protein. Cells were washed three times in 0.1 M MES/Tris buffer and resuspended with MES/Tris with supplemental calcium. Cells were loaded onto a black, clear bottom microplate and imaged on a FlexStation3 plate reader. Samples were imaged in “flex” mode. Samples were imaged for 48 s at an interval of 1.6 s. Fluorescence was measured with an excitation at 485 nm, and emission 525 nm. At the 21 s mark, 100 μl ligand solution was transferred to the cells. For strains with mScarlet, fluorescence was read with excitation 570 nm/emission 610 nm. Slopes were calculated from the last 6 points of measurement and were normalized to the positive control samples. Any replicate in which the mScarlet value was measured to be over 2 standard deviations less than the mean for that set was discarded from further analysis.
For multiple comparisons in the site-saturation screening data, One-way ANOVA with Dunnett’s multiple comparisons test was performed where every sample was compared to the “broken” negative control. Significance was plotted where ∗ represents a p value ≤0.05, ∗∗ is p ≤0.01, and ∗∗∗ is p ≤0.001. Dose–response curves were fit with nonlinear regression software using a four-parameter logistic curve. All statistics were calculated and plotted in Graphpad Prism software.

| Structure (SMILES) | signal decay over the time course (P2X2 A304W) | Bottom, best fit value (P2X2 F301W+F303Y) | Hillslope, best fit value (P2X2 F301W+F303Y) | Top, best fit value (P2X2 F301W+F303Y) | EC50 (P2X2 F301W+F303Y) [µM] |
| --- | --- | --- | --- | --- | --- |
| Nc1ncnc2c1ncn2[C@@H]1O[C@H](COP(=O)(O)OP(=O)(O)NP(=O)(O)O)[C@@H](O)[C@H]1O [AMP-PNP] | a small amount of signal decay | 0.3038 | 1.304 | 12.6 | 260 |
| Nc1ncnc2c1ncn2[C@@H]1O[C@H](COP(=O)(O)OP(=O)(O)OP(=O)(O)O)[C@@H](O)[C@H]1O [ATP] | no sign of decay | -0.11 | 0.81 | 46.60 | 3.01 |
